Several values for one entry are separate records, joined by “and”; a condition that tells them apart may be missing. Equal entries are not always repeated. Where two headings read alike, the source gives them in different places.
Experiment: 4-h oral plasma pharmacokinetics and tissue distribution, male wild-type and ABC transporter knockout mice
Format: in vivo
Details: 10 mg/kg oral; for AUC(0-t) / Kp at 4 h / concentration at 4 h / Cmax / Tmax: FVB, mouse; for AUC(0-t) / Cmax / Tmax: plasma; for AUC(0-t): read-out: AUC0–4h; for Fold change Cliver / Fold change SIC (% of dose) / Fold change ratio (SIC (%)-to-plasma) / Fold change ratio (liver-to-plasma) / Fold change ratio (testis-to-plasma) / Fold increase Cbrain / Fold increase Ctestis / Fold change ratio (brain-to-plasma) / Fold increase AUC0–4h: vs wild-type; for Tmax: median (range)
Text: Mice with similar average ages (and body weights) were randomly allocated in experimental groups as far as possible. Mice were maintained in a temperature-controlled and specific pathogen-free environment with a 12-h light and 12-h dark cycle and they received a standard diet (Transbreed, SDS Diets, Technilab-BMI, Someren, The Netherlands) and acidified water ad libitum. […] Given the objective main readout (repotrectinib plasma and tissue concentrations as measured by LC-MS/MS), no blinding method was applied.
Repotrectinib was dissolved in dimethyl sulfoxide (DMSO) at a concentration of 50 mg/mL. This stock solution was first diluted 3-fold with ethanol/polysorbate 80 (1/1; v/v), followed by further dilution with a 10 mM hydrochloric acid solution, yielding a dosing solution of 1 mg/mL, freshly prepared on the day of experiment. Final concentrations of the solvents in the administration solution were: 2%, 2%, 2%, and 94% (all v/v) for DMSO, ethanol, polysorbate 80, and 10 mM hydrochloric acid solution, respectively.
To minimize variation in absorption upon oral administration, mice were fasted for 2–3 h before repotrectinib (10 mg/kg body weight) was administered by gavage into the stomach at 10 µL/g body weight, with a blunt-ended needle. Tail vein serial blood samples were collected at 0.125, 0.25, 0.5, 1, 2 and 4 h using heparinized capillary tubes (Sarstedt, Nümbrecht, Germany) for the 8-h experiments. For the 4- and 2-h experiments, blood samplings were performed from the tail vein with the same schedule, but terminated at 2 and 1 h, respectively. Eight, four, or two hours after oral administration, mice were deeply anesthetized with 2–3% isoflurane, followed by cardiac puncture to collect blood in Eppendorf tubes containing heparin as an anticoagulant. Brain, liver, spleen, kidney, lung, small intestine, and testis were rapidly collected after sacrificing the mice by cervical dislocation. The small intestinal contents (SIC) were separated from small intestinal tissue (SI), which was flushed and rinsed with cold saline to remove any residual feces. Brain, liver, spleen, kidney, lung, SI, SIC, and testis were homogenized with 1, 3, 1, 2, 1, 3, 2, and 1 mL of 2% BSA (w/v), respectively. Plasma fraction was isolated from blood by centrifugation at 9000× g for 6 min at 4 °C. All samples were stored at −30 °C until analysis.
A sensitive and specific liquid chromatography-tandem mass spectrometry method using protein precipitation pre-treatment was adopted to quantify the concentration of repotrectinib in DMEM medium, plasma samples and tissue homogenates.
A non-compartmental model using the PKSolver add-in program for Microsoft Excel was adopted to calculate the pharmacokinetic parameters of repotrectinib. Oral availability was assessed by the plasma area under the curve (AUC), calculated using repotrectinib plasma concentration-time curves with the linear trapezoidal rule without extrapolating the infinity. Statistical testing was performed in Graphpad Prism7 (Graphpad Software, La Jolla, CA, USA). All data are presented as geometric means ± SD. Heteroscedastic data were log-transformed before applying statistical analysis. When differences between two groups were compared, the two-sided unpaired Student’s t test was used. One-way analysis of variance (ANOVA) was applied when multiple groups were compared, and the Bonferroni post hoc correction was used to accommodate multiple testing. Differences were considered statistically significant when P < 0.05.

[1] = male Abcb1a/1b;Abcg2−/− mice, 4 h
[2] = male Abcb1a/1b;Abcg2−/− mice, 4 h, 10 mg/kg
[3] = male Abcb1a/1b−/− mice, 4 h, 10 mg/kg
[4] = male, po, 10 mg/kg, male Abcb1a/1b;Abcg2−/− mice, 4 h
[5] = male, po, 10 mg/kg, male Abcb1a/1b−/− mice, 4 h
[6] = male, po, 10 mg/kg, male Abcg2−/− mice, 4 h
[7] = male, po, 10 mg/kg, male wild-type mice, 4 h

## C[C@H]1CNC(=O)c2cnn3ccc(nc23)N[C@H](C)c2cc(F)ccc2O1 [repotrectinib]
Abcb1a/1b;Abcg2−/− mice vs wild-type
  Small intestinal content recovery, fold decrease: 13.6 fold
Abcb1a/1b−/− mice vs wild-type
  Small intestinal content recovery, fold decrease: 4.9 fold
Abcg2−/− and Abcb1a/1b;Abcg2−/− mice compared to wild-type mice, 4 h
  reduction of liver-to-plasma ratio: 30–35%
Male Abcg2−/− mice, 4 h
  AUC(0-t): 11.9 ± 1.42 µg·h/mL
  Fold change Cliver: 1.01
  Fold change SIC (% of dose): 0.87
  Fold change ratio (SIC (%)-to-plasma): 0.54
  Fold change ratio (brain-to-plasma): 0.93
  Fold change ratio (liver-to-plasma): 0.65
  Fold change ratio (testis-to-plasma): 0.71
  Fold increase Cbrain: 1.41
  Fold increase Ctestis: 1.07
[1]
  Fold change Cliver: 1.37
  Fold change SIC (% of dose): 0.07
  Fold change ratio (SIC (%)-to-plasma): 0.03
  Fold change ratio (liver-to-plasma): 0.69
  Fold change ratio (testis-to-plasma): 5.6
  Fold increase Cbrain: 29.1
  Fold increase Ctestis: 10.8
[2]
  Fold change ratio (brain-to-plasma): 14 and 14.2
  Fold increase AUC0–4h: 2.0
Male Abcb1a/1b−/− mice, 4 h
  Fold change Cliver: 0.84
  Fold change SIC (% of dose): 0.20
  Fold change ratio (SIC (%)-to-plasma): 0.21
  Fold change ratio (liver-to-plasma): 0.85
  Fold change ratio (testis-to-plasma): 2.42
  Fold increase AUC0–4h: 1.32
  Fold increase Ctestis: 2.45
[3]
  Fold change ratio (brain-to-plasma): 4.1 and 4.13
  Fold increase Cbrain: 4.1 and 4.14
Male Abcg2−/− mice, 4 h, 10 mg/kg
  Fold increase AUC0–4h: 1.7
Male wild-type mice, 4 h
  Fold change Cliver: 1.00
  Fold change SIC (% of dose): 1.00
  Fold change ratio (SIC (%)-to-plasma): 1.00
  Fold change ratio (brain-to-plasma): 1.00
  Fold change ratio (liver-to-plasma): 1.00
  Fold change ratio (testis-to-plasma): 1.00
  Fold increase AUC0–4h: 1.00
  Fold increase Cbrain: 1.00
  Fold increase Ctestis: 1.00
male, brain, po, 10 mg/kg, male Abcb1a/1b;Abcg2−/− mice, 4 h, read-out: Brain-to-plasma ratio
  Kp at 4 h: 2.13 ± 0.21
male, brain, po, 10 mg/kg, male Abcb1a/1b;Abcg2−/− mice, 4 h, read-out: Cbrain
  concentration at 4 h: 2760 ± 928 ng/g
male, brain, po, 10 mg/kg, male Abcb1a/1b−/− mice, 4 h, read-out: Brain-to-plasma ratio
  Kp at 4 h: 0.62 ± 0.17
male, brain, po, 10 mg/kg, male Abcb1a/1b−/− mice, 4 h, read-out: Cbrain
  concentration at 4 h: 394 ± 102 ng/g
male, brain, po, 10 mg/kg, male Abcg2−/− mice, 4 h, read-out: Brain-to-plasma ratio
  Kp at 4 h: 0.14 ± 0.03
male, brain, po, 10 mg/kg, male Abcg2−/− mice, 4 h, read-out: Cbrain
  concentration at 4 h: 134 ± 18 ng/g
male, brain, po, 10 mg/kg, male wild-type mice, 4 h, read-out: Brain-to-plasma ratio
  Kp at 4 h: 0.15 ± 0.03
male, brain, po, 10 mg/kg, male wild-type mice, 4 h, read-out: Cbrain
  concentration at 4 h: 95.1 ± 23.5 ng/g
male, liver, po, 10 mg/kg, male Abcb1a/1b;Abcg2−/− mice, 4 h, read-out: Cliver
  concentration at 4 h: 9090 ± 2750 ng/g
male, liver, po, 10 mg/kg, male Abcb1a/1b;Abcg2−/− mice, 4 h, read-out: Liver-to-plasma ratio
  Kp at 4 h: 7.2 ± 1.2
male, liver, po, 10 mg/kg, male Abcb1a/1b−/− mice, 4 h, read-out: Cliver
  concentration at 4 h: 5580 ± 2030 ng/g
male, liver, po, 10 mg/kg, male Abcb1a/1b−/− mice, 4 h, read-out: Liver-to-plasma ratio
  Kp at 4 h: 8.9 ± 2.4
male, liver, po, 10 mg/kg, male Abcg2−/− mice, 4 h, read-out: Cliver
  concentration at 4 h: 6690 ± 1210 ng/g
male, liver, po, 10 mg/kg, male Abcg2−/− mice, 4 h, read-out: Liver-to-plasma ratio
  Kp at 4 h: 6.8 ± 0.6
male, liver, po, 10 mg/kg, male wild-type mice, 4 h, read-out: Cliver
  concentration at 4 h: 6630 ± 1160 ng/g
male, liver, po, 10 mg/kg, male wild-type mice, 4 h, read-out: Liver-to-plasma ratio
  Kp at 4 h: 10.5 ± 1.9
[4]
  Cmax: 5.23 ± 1.24 µg/mL
  AUC(0-t): 14 ± 3.18 µg·h/mL
  Tmax: 60 min
[5]
  Cmax: 3.63 ± 0.62 µg/mL
  AUC(0-t): 9.2 ± 1.64 µg·h/mL
  Tmax: 30 min
[6]
  Cmax: 5.08 ± 0.49 µg/mL
  Tmax: 15 min
[7]
  Cmax: 3.08 ± 1.44 µg/mL
  AUC(0-t): 6.99 ± 2.46 µg·h/mL
  Tmax: 30 min
male, small intestinal content, po, 10 mg/kg, male Abcb1a/1b;Abcg2−/− mice, 4 h, read-out: SIC (%)-to-plasma ratio
  Kp at 4 h: 0.0003 ± 9e-05
male, small intestinal content, po, 10 mg/kg, male Abcb1a/1b−/− mice, 4 h, read-out: SIC (%)-to-plasma ratio
  Kp at 4 h: 0.00186 ± 0.00084
male, small intestinal content, po, 10 mg/kg, male Abcg2−/− mice, 4 h, read-out: SIC (%)-to-plasma ratio
  Kp at 4 h: 0.00475 ± 0.00154
male, small intestinal content, po, 10 mg/kg, male wild-type mice, 4 h, read-out: SIC (%)-to-plasma ratio
  Kp at 4 h: 0.00879 ± 0.00241
male, testis, po, 10 mg/kg, male Abcb1a/1b;Abcg2−/− mice, 4 h, read-out: Ctestis
  concentration at 4 h: 1670 ± 386 ng/g
male, testis, po, 10 mg/kg, male Abcb1a/1b;Abcg2−/− mice, 4 h, read-out: Testis-to-plasma ratio
  Kp at 4 h: 1.35 ± 0.31
male, testis, po, 10 mg/kg, male Abcb1a/1b−/− mice, 4 h, read-out: Ctestis
  concentration at 4 h: 380 ± 122 ng/g
male, testis, po, 10 mg/kg, male Abcb1a/1b−/− mice, 4 h, read-out: Testis-to-plasma ratio
  Kp at 4 h: 0.58 ± 0.14
male, testis, po, 10 mg/kg, male Abcg2−/− mice, 4 h, read-out: Ctestis
  concentration at 4 h: 166 ± 27 ng/g
male, testis, po, 10 mg/kg, male Abcg2−/− mice, 4 h, read-out: Testis-to-plasma ratio
  Kp at 4 h: 0.17 ± 0.02
male, testis, po, 10 mg/kg, male wild-type mice, 4 h, read-out: Ctestis
  concentration at 4 h: 155 ± 55 ng/g
male, testis, po, 10 mg/kg, male wild-type mice, 4 h, read-out: Testis-to-plasma ratio
  Kp at 4 h: 0.24 ± 0.07
Small intestinal content, male Abcb1a/1b;Abcg2−/− mice, 4 h, 10 mg/kg
  SIC (% of dose): 0.4 % of dose and 0.41 ± 0.23 ^(##) % of dose
Small intestinal content, male Abcb1a/1b−/− mice, 4 h, 10 mg/kg
  SIC (% of dose): 1.1 % of dose and 1.13 ± 0.40 % of dose
Small intestinal content, male Abcg2−/− mice, 4 h, 10 mg/kg
  SIC (% of dose): 4.8 % of dose and 4.84 ± 2.21 % of dose

From publication PMC8619046, “ABCB1 and ABCG2 Control Brain Accumulation and Intestinal Disposition of the Novel ROS1/TRK/ALK Inhibitor Repotrectinib, While OATP1A/1B, ABCG2, and CYP3A Limit Its Oral Availability” (Pharmaceutics, 2021)
